Data as given in patent publication US20020137929A1, “1 - (3-heterocyclylphenyl) isothiourea, -isourea, -guanidine and -amidine herbicidal agents” (Intellectual Property Department, BASF Aktiengesellschaft, priority 1998, published 2002).

Experiments:
CASOB (Sicklepod) = test: Postemergence herbicidal evaluation; assay type: in vivo, Cassia obtusifolia; conditions: postemergence
Method in brief: (§1)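 Each compound, dispersed in an acetone/water mix (50/50) carrying 0.5% TWEEN 20, is nozzle-sprayed at 40 psi on approximately two-week-old seedlings at about 0.0156–0.500 kg/ha. Plants are assessed 4–5 weeks afterward on a 0–9 scale relative to control; duplicate tests are averaged.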

[1] = test system: CHEAL (Lambsquarters, Common); test: Postemergence herbicidal evaluation; assay type: in vivo, Chenopodium album; conditions: postemergence
Method in brief: as §1

GALAP (Galium) = test: Postemergence herbicidal evaluation; assay type: in vivo, Galium aparine; conditions: postemergence
Method in brief: as §1

ORYSAT (Rice, Tebonnet) [2] = test: Postemergence herbicidal evaluation; assay type: in vivo, Oryza sativa, (L.) Tebonnet; conditions: postemergence
Method in brief: as §1

ZEAMX (Corn, Field) = test: Postemergence herbicidal evaluation; assay type: in vivo, Zea mays; conditions: postemergence
Method in brief: as §1

AMBEL (Ragweed, Common) = test: Preemergence herbicidal evaluation; assay type: in vivo, Ambrosia artemisifolia; conditions: rated 4-5 weeks after treatment
Method in brief: (§2)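 In this greenhouse assay, monocot and dicot seeds are planted in soil and treated prior to emergence with an aqueous acetone spray (about 0.0156-0.500 kg/ha). Plants are assessed visually against control on a 0-9 scale after 4-5 weeks.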

SETVI (Foxtail, Green) = test: Preemergence herbicidal evaluation; assay type: in vivo, Setaria viridis; conditions: rated 4-5 weeks after treatment
Method in brief: as §2

[3] = test system: GLXMAW (Soybean, Williams); test: Preemergence herbicidal evaluation; assay type: in vivo, Glycine max, (L.) Merr. cv Williams; conditions: rated 4-5 weeks after treatment
Method in brief: as §2

ORYSAT (Rice, Tebonnet) [4] = test: Preemergence herbicidal evaluation; assay type: in vivo, Oryza sativa, (L.) Tebonnet; conditions: rated 4-5 weeks after treatment
Method in brief: as §2

MOOVA (Monochoria) = test: Preemergence weed control under flooded paddy conditions; assay type: in vivo, Monochoria vaginalis; conditions: rated 3-4 weeks after treatment
Method in brief: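 Silt loam, seeds in top 0.5 cm; flood held 1.5-3 cm; test cpd as acetone/water 50/50 into flood water, ~0.0313-0.500 kg/ha a.i.; greenhouse 3-4 wk; visual 0-9 score vs control.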

CYPIR (Rice Flatsedge) = test: Postemergence weed control under flooded paddy conditions; assay type: in vivo, Cyperus iria; conditions: postemergence weeds, 3-4 weeks after treatment
From the text: Results of herbicide evaluation are expressed on a rating scale (0-9). The scale is based upon a visual observation of plant stand, vigor, malformation, size, chlorosis and overall plant appearance as compared with a control.
Plastic containers containing weeds which are 3 to 5 cm tall and rice seedlings at the 1.5 to 2.5 leaf stage are flooded with water. The water is maintained at 1.5 to 3 cm above the soil surface for the duration of the experiment. Test compounds are applied as aqueous/ acetone mixtures 50/50 v/v directly into the flood water to provide the equivalent of about 0.0313 to 0.500 kg/ha of active ingredient. The treated containers are placed on greenhouse benches and cared for in accordance with conventional greenhouse procedures. Three to four weeks after treatment, the test is terminated and each container is examined and herbicidal effect rated according to the rating system provided in Example 37. The compounds evaluated are reported by compound number given in Example 37.

[5] = test system: SAGPY (Arrowhead (Pygmaea)); test: as above; assay type: in vivo, Sagittaria pygmaea; conditions: postemergence weeds, 3-4 weeks after treatment
Method in brief: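 Containers holding 3–5 cm weeds and rice at 1.5–2.5 leaves are flooded to 1.5–3 cm above soil. Compound in 50/50 v/v aqueous/acetone is then added directly to the water, about 0.0313–0.500 kg/ha. Plants are kept in the greenhouse and rated 0–9 visually at 3–4 weeks.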

CCOC(=O)CN1C(=O)CN(C)C1=Nc1cc(-n2c(=O)cc(C(F)(F)F)n(C)c2=O)c(F)cc1Cl [Compound 25, Ethyl 2-{{2-chloro-5-[3,6-dihydro-3-methyl-2,6-dioxo-4-(trifluoromethyl)-1(2H)-pyrimidinyl]-4-fluorophenyl}imino}-3-methyl-5-oxo-1-imidazolidineacetate]
CASOB herbicidal rating (CASOB (Sicklepod); rate 0.0156 kg/ha): 0.0
CASOB herbicidal rating (CASOB (Sicklepod); rate 0.0313 kg/ha): 0.0
CASOB herbicidal rating (CASOB (Sicklepod); rate 0.0625 kg/ha): 0.0
CHEAL herbicidal rating ([1]; rate 0.0156 kg/ha): 2.0
CHEAL herbicidal rating ([1]; rate 0.0313 kg/ha): 5.0
CHEAL herbicidal rating ([1]; rate 0.0625 kg/ha): 9.0
GALAP herbicidal rating (GALAP (Galium); rate 0.0156 kg/ha): 2.0
GALAP herbicidal rating (GALAP (Galium); rate 0.0313 kg/ha): 5.0
GALAP herbicidal rating (GALAP (Galium); rate 0.0625 kg/ha): 7.0
ORYSAT herbicidal rating (ORYSAT (Rice, Tebonnet) [2]; rate 0.0156 kg/ha): 0.5
ORYSAT herbicidal rating (ORYSAT (Rice, Tebonnet) [2]; rate 0.0313 kg/ha): 2.0
ORYSAT herbicidal rating (ORYSAT (Rice, Tebonnet) [2]; rate 0.0625 kg/ha): 2.0
ZEAMX herbicidal rating (ZEAMX (Corn, Field); rate 0.0156 kg/ha): 3.5
ZEAMX herbicidal rating (ZEAMX (Corn, Field); rate 0.0313 kg/ha): 5.5
ZEAMX herbicidal rating (ZEAMX (Corn, Field); rate 0.0625 kg/ha): 7.0
Preemergence herbicidal rating AMBEL (AMBEL (Ragweed, Common); rate 0.0156 kg/ha): 0.0
Preemergence herbicidal rating AMBEL (AMBEL (Ragweed, Common); rate 0.0313 kg/ha): 2.0
AMBEL preemergence herbicidal rating (AMBEL (Ragweed, Common); rate 0.0625 kg/ha): 9.0
AMBEL preemergence herbicidal rating (AMBEL (Ragweed, Common); rate 0.1250 kg/ha): 9.0
AMBEL preemergence herbicidal rating (AMBEL (Ragweed, Common); rate 0.2500 kg/ha): 9.0
Preemergence herbicidal rating SETVI (SETVI (Foxtail, Green); rate 0.0156 kg/ha): 0.0
Preemergence herbicidal rating SETVI (SETVI (Foxtail, Green); rate 0.0313 kg/ha): 0.0
SETVI preemergence herbicidal rating (SETVI (Foxtail, Green); rate 0.0625 kg/ha): 7.0
SETVI preemergence herbicidal rating (SETVI (Foxtail, Green); rate 0.1250 kg/ha): 9.0
SETVI preemergence herbicidal rating (SETVI (Foxtail, Green); rate 0.2500 kg/ha): 9.0
Preemergence herbicidal rating GLXMAW ([3]; rate 0.0156 kg/ha): 0.0
Preemergence herbicidal rating GLXMAW ([3]; rate 0.0313 kg/ha): 0.0
GLXMAW preemergence herbicidal rating ([3]; rate 0.0625 kg/ha): 2.0
GLXMAW preemergence herbicidal rating ([3]; rate 0.1250 kg/ha): 3.0
GLXMAW preemergence herbicidal rating ([3]; rate 0.2500 kg/ha): 6.0
Preemergence herbicidal rating ORYSAT (ORYSAT (Rice, Tebonnet) [4]; rate 0.0156 kg/ha): 0.0
Preemergence herbicidal rating ORYSAT (ORYSAT (Rice, Tebonnet) [4]; rate 0.0313 kg/ha): 0.0
ORYSAT preemergence herbicidal rating (ORYSAT (Rice, Tebonnet) [4]; rate 0.0625 kg/ha): 0.0
ORYSAT preemergence herbicidal rating (ORYSAT (Rice, Tebonnet) [4]; rate 0.1250 kg/ha): 2.0
ORYSAT preemergence herbicidal rating (ORYSAT (Rice, Tebonnet) [4]; rate 0.2500 kg/ha): 5.0
Herbicidal rating MOOVA (MOOVA (Monochoria); 0.0313 kg/ha): 9.0
Herbicidal rating MOOVA (MOOVA (Monochoria); 0.0625 kg/ha): 9.0
Herbicidal rating MOOVA (MOOVA (Monochoria); 0.1250 kg/ha): 9.0
Herbicidal rating MOOVA (MOOVA (Monochoria); 0.2500 kg/ha): 9.0
Herbicidal rating CYPIR (CYPIR (Rice Flatsedge); rate 0.0313 kg/ha): 0.0
Herbicidal rating CYPIR (CYPIR (Rice Flatsedge); rate 0.0625 kg/ha): 0.0
Herbicidal rating CYPIR (CYPIR (Rice Flatsedge); rate 0.1250 kg/ha): 0.0
Herbicidal rating CYPIR (CYPIR (Rice Flatsedge); rate 0.2500 kg/ha): 0.0
Herbicidal rating SAGPY ([5]; rate 0.0313 kg/ha): 0.0
Herbicidal rating SAGPY ([5]; rate 0.0625 kg/ha): 0.0
Herbicidal rating SAGPY ([5]; rate 0.1250 kg/ha): 5.0
Herbicidal rating SAGPY ([5]; rate 0.2500 kg/ha): 5.0

Cn1c(C(F)(F)F)cc(=O)n(-c2cc(N=C3SCC(=O)N3Cc3ccccc3)c(Cl)cc2F)c1=O [Compound 26]
CASOB herbicidal rating (CASOB (Sicklepod); rate 0.0156 kg/ha): 0.0
CASOB herbicidal rating (CASOB (Sicklepod); rate 0.0313 kg/ha): 0.0
CASOB herbicidal rating (CASOB (Sicklepod); rate 0.0625 kg/ha): 0.0
CHEAL herbicidal rating ([1]; rate 0.0156 kg/ha): 9.0
CHEAL herbicidal rating ([1]; rate 0.0313 kg/ha): 9.0
CHEAL herbicidal rating ([1]; rate 0.0625 kg/ha): 9.0
GALAP herbicidal rating (GALAP (Galium); rate 0.0156 kg/ha): 3.0
GALAP herbicidal rating (GALAP (Galium); rate 0.0313 kg/ha): 5.0
GALAP herbicidal rating (GALAP (Galium); rate 0.0625 kg/ha): 5.0
ORYSAT herbicidal rating (ORYSAT (Rice, Tebonnet) [2]; rate 0.0156 kg/ha): 0.5
ORYSAT herbicidal rating (ORYSAT (Rice, Tebonnet) [2]; rate 0.0313 kg/ha): 1.0
ORYSAT herbicidal rating (ORYSAT (Rice, Tebonnet) [2]; rate 0.0625 kg/ha): 1.5
ZEAMX herbicidal rating (ZEAMX (Corn, Field); rate 0.0156 kg/ha): 3.5
ZEAMX herbicidal rating (ZEAMX (Corn, Field); rate 0.0313 kg/ha): 4.5
ZEAMX herbicidal rating (ZEAMX (Corn, Field); rate 0.0625 kg/ha): 5.5
Preemergence herbicidal rating AMBEL (AMBEL (Ragweed, Common); rate 0.0156 kg/ha): 0.0
Preemergence herbicidal rating AMBEL (AMBEL (Ragweed, Common); rate 0.0313 kg/ha): 0.0
Preemergence herbicidal rating AMBEL (AMBEL (Ragweed, Common); rate 0.0625 kg/ha): 0.0
Preemergence herbicidal rating AMBEL (AMBEL (Ragweed, Common); rate 0.1250 kg/ha): 5.0
Preemergence herbicidal rating AMBEL (AMBEL (Ragweed, Common); rate 0.2500 kg/ha): 5.0
Preemergence herbicidal rating SETVI (SETVI (Foxtail, Green); rate 0.0156 kg/ha): 0.0
Preemergence herbicidal rating SETVI (SETVI (Foxtail, Green); rate 0.0313 kg/ha): 0.0
Preemergence herbicidal rating SETVI (SETVI (Foxtail, Green); rate 0.0625 kg/ha): 0.0
Preemergence herbicidal rating SETVI (SETVI (Foxtail, Green); rate 0.1250 kg/ha): 5.0
Preemergence herbicidal rating SETVI (SETVI (Foxtail, Green); rate 0.2500 kg/ha): 9.0
Preemergence herbicidal rating GLXMAW ([3]; rate 0.0156 kg/ha): 0.0
Preemergence herbicidal rating GLXMAW ([3]; rate 0.0313 kg/ha): 0.0
Preemergence herbicidal rating GLXMAW ([3]; rate 0.0625 kg/ha): 0.0
Preemergence herbicidal rating GLXMAW ([3]; rate 0.1250 kg/ha): 0.0
Preemergence herbicidal rating GLXMAW ([3]; rate 0.2500 kg/ha): 1.0
Preemergence herbicidal rating ORYSAT (ORYSAT (Rice, Tebonnet) [4]; rate 0.0156 kg/ha): 0.0
Preemergence herbicidal rating ORYSAT (ORYSAT (Rice, Tebonnet) [4]; rate 0.0313 kg/ha): 0.0
Preemergence herbicidal rating ORYSAT (ORYSAT (Rice, Tebonnet) [4]; rate 0.0625 kg/ha): 0.0
Preemergence herbicidal rating ORYSAT (ORYSAT (Rice, Tebonnet) [4]; rate 0.1250 kg/ha): 0.0
Preemergence herbicidal rating ORYSAT (ORYSAT (Rice, Tebonnet) [4]; rate 0.2500 kg/ha): 0.0
Herbicidal rating MOOVA (MOOVA (Monochoria); 0.0313 kg/ha): 9.0
Herbicidal rating MOOVA (MOOVA (Monochoria); 0.0625 kg/ha): 9.0
Herbicidal rating MOOVA (MOOVA (Monochoria); 0.1250 kg/ha): 9.0
Herbicidal rating MOOVA (MOOVA (Monochoria); 0.2500 kg/ha): 9.0
Herbicidal rating CYPIR (CYPIR (Rice Flatsedge); rate 0.0313 kg/ha): 2.0
Herbicidal rating CYPIR (CYPIR (Rice Flatsedge); rate 0.0625 kg/ha): 4.0
Herbicidal rating CYPIR (CYPIR (Rice Flatsedge); rate 0.1250 kg/ha): 7.0
Herbicidal rating CYPIR (CYPIR (Rice Flatsedge); rate 0.2500 kg/ha): 9.0
Herbicidal rating SAGPY ([5]; rate 0.0313 kg/ha): 0.0
Herbicidal rating SAGPY ([5]; rate 0.0625 kg/ha): 4.0
Herbicidal rating SAGPY ([5]; rate 0.1250 kg/ha): 5.0
Herbicidal rating SAGPY ([5]; rate 0.2500 kg/ha): 7.0
